Assay results reported in US12077503B2, “Substituted cyclic amides and their use as herbicides” (FMC CORPORATION, priority 2015, dated 2024).

Assays:
Assay type in all cases: in vivo
[1] = system: rice (Oryra sativa); assay: Test B flooded paddy test; conditions: Oryza sativa, 250 g ai/ha, Flood; 0 to 100 scale where 0 is no effect and 100 is complete control; read-out: Rice plant response rating
Summary of the method: (§1)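 Response scored visually against untreated controls, 0 = no effect and 100 = complete control, 13–15 d after treatment in the greenhouse. Compounds added to paddy water held 3 cm above soil surface. Treatment given at 2-leaf stage.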

[2] = system: ducksalad (Heteranthera limosa); assay: Test B flooded paddy test; conditions: Heteranthera limosa, 250 g ai/ha, Flood; 0 to 100 scale where 0 is no effect and 100 is complete control; read-out: Ducksalad plant response rating
Summary of the method: as §1

[3] = system: barnyardgrass (Echinochloa crus-galli); assay: Test B flooded paddy test; conditions: Echinochloa crus-galli, 250 g ai/ha, Flood; 0 to 100 scale where 0 is no effect and 100 is complete control; read-out: Barnyardgrass plant response rating
Summary of the method: as §1

[4] = system: sedge, umbrella (small-flower umbrella sedge, Cyperus difformis); assay: Test B flooded paddy test; conditions: Cyperus difformis, 250 g ai/ha, Flood; 0 to 100 scale where 0 is no effect and 100 is complete control; read-out: Sedge, Umbrella plant response rating
Summary of the method: as §1

[5] = system: giant foxtail (Setaria faberii); assay: Test A postemergence; conditions: Setaria faberi, post-emergence, 240 h
Summary of the method: (§2)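 Visual injury, scored on a 0–100 scale relative to untreated controls, was recorded about 10 d after application. Treatments were a preemergence soil spray over planted seeds or a postemergence spray on plants at the one- to two-leaf stage, 2 to 10 cm tall, all in loam soil–sand blend in the greenhouse.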

[6] = system: Kochia (Kochia scoparia); assay: Test A postemergence; conditions: Bassia scoparia, post-emergence, 240 h
Summary of the method: as §2

[7] = system: Galium (catchweed bedstraw, Galium aparine); assay: Test A postemergence; conditions: Galium, post-emergence, 240 h
Summary of the method: as §2

[8] = system: pigweed (Amaranthus retroflexus); assay: Test A postemergence; conditions: Amaranthus retroflexus, post-emergence, 240 h
Summary of the method: as §2

[9] = system: blackgrass (Alopecurus myosuroides); assay: Test A postemergence; conditions: Alopecurus myosuroides, post-emergence, 240 h
Summary of the method: as §2

[10] = system: barnyardgrass (Echinochloa crus-galli); assay: Test A postemergence; conditions: Echinochloa crus-galli, post-emergence, 240 h
Summary of the method: as §2

[11] = system: wheat (Triticum aestivum); assay: Test A postemergence; conditions: Triticum aestivum, post-emergence, 240 h
Summary of the method: as §2

[12] = system: ragweed (common ragweed, Ambrosia elatior); assay: Test A postemergence; conditions: Ambrosia artemisiifolia, post-emergence, 240 h
Summary of the method: as §2

[13] = system: ryegrass, Italian (Italian ryegrass, Lolium multiflorum); assay: Test A postemergence; conditions: Lolium multiflorum, post-emergence, 240 h
Summary of the method: as §2

[14] = system: corn (Zea mays); assay: Test A postemergence; conditions: Zea mays, post-emergence, 240 h
Summary of the method: as §2

[15] = system: giant foxtail (Setaria faberii); assay: Test A preemergence; conditions: Setaria faberi, pre-emergence, 240 h, 0 to 100 scale where 0 is no effect and 100 is complete control, read-out: Foxtail, Giant plant response rating
Summary of the method: as §2

[16] = system: Kochia (Kochia scoparia); assay: Test A preemergence; conditions: Bassia scoparia, pre-emergence, 240 h, 0 to 100 scale where 0 is no effect and 100 is complete control, read-out: Kochia plant response rating
Summary of the method: as §2

[17] = system: pigweed (Amaranthus retroflexus); assay: Test A preemergence; conditions: Amaranthus retroflexus, pre-emergence, 240 h, 0 to 100 scale where 0 is no effect and 100 is complete control, read-out: Pigweed plant response rating
[18] = system: barnyardgrass (Echinochloa crus-galli); assay: Test A preemergence; conditions: Echinochloa crus-galli, pre-emergence, 240 h, 0 to 100 scale where 0 is no effect and 100 is complete control, read-out: Barnyardgrass plant response rating
Summary of the method: as §2

[19] = system: ragweed (common ragweed, Ambrosia elatior); assay: Test A preemergence; conditions: Ambrosia artemisiifolia, pre-emergence, 240 h, 0 to 100 scale where 0 is no effect and 100 is complete control, read-out: Ragweed plant response rating
Summary of the method: as §2

[20] = system: ryegrass, Italian (Italian ryegrass, Lolium multiflorum); assay: Test A preemergence; conditions: Lolium multiflorum, pre-emergence, 240 h, 0 to 100 scale where 0 is no effect and 100 is complete control, read-out: Ryegrass, Italian plant response rating
Summary of the method: as §2

[21] = 125 g ai/ha, preemergence, approx. 10 d

For `C=C(C)c1ccc([C@H]2CN(C)C(=O)[C@@H]2C(=O)Nc2cccc(F)c2F)cc1` [Compound 1149], which pest or weed control at 250 g/ha [1] is on record?
The pest or weed control at 250 g/ha was 30%.

What about the pest or weed control at 250 g/ha [2] of the same compound?
The pest or weed control at 250 g/ha was 75%.

What about the pest or weed control at 250 g/ha [3] of the same compound?
Its pest or weed control at 250 g/ha is 45%.

And the pest or weed control at 250 g/ha [4]?
The pest or weed control at 250 g/ha was 0%.

And the pest or weed control at 125 g/ha ([5]; 125 g ai/ha, postemergence, visual injury on 0 to 100 scale (0 no effect, 100 complete control), approx. 10 d, read-out: Foxtail, Giant plant response rating)?
The pest or weed control at 125 g/ha was 80%.

And the pest or weed control at 31 g/ha ([5]; Postemergence, 31 g ai/ha, visual injury after approx. 10 d, 0 to 100 scale, 0 no effect, 100 complete control, read-out: Plant response rating, Foxtail, Giant)?
Its pest or weed control at 31 g/ha is 40%.

And the pest or weed control at 125 g/ha ([6]; 125 g ai/ha, postemergence, visual injury on 0 to 100 scale (0 no effect, 100 complete control), approx. 10 d, read-out: Kochia plant response rating)?
Its pest or weed control at 125 g/ha is 30%.

And the pest or weed control at 31 g/ha ([6]; Postemergence, 31 g ai/ha, visual injury after approx. 10 d, 0 to 100 scale, 0 no effect, 100 complete control, read-out: Plant response rating, Kochia)?
The pest or weed control at 31 g/ha was 0%.

What about the pest or weed control at 125 g/ha ([7]; 125 g ai/ha, postemergence, visual injury on 0 to 100 scale (0 no effect, 100 complete control), approx. 10 d, read-out: Galium plant response rating) of the same compound?
The pest or weed control at 125 g/ha was 50%.

And the pest or weed control at 31 g/ha ([7]; Postemergence, 31 g ai/ha, visual injury after approx. 10 d, 0 to 100 scale, 0 no effect, 100 complete control, read-out: Plant response rating, Galium)?
The pest or weed control at 31 g/ha was 20%.

And the pest or weed control at 125 g/ha ([8]; 125 g ai/ha, postemergence, visual injury vs untreated controls after approx. 10 d, 0 = no effect, 100 = complete control, read-out: Pigweed plant response rating (0 to 100 scale))?
The pest or weed control at 125 g/ha was 0%.

And the pest or weed control at 31 g/ha ([8]; Postemergence, 31 g ai/ha, visual injury after approx. 10 d, 0 to 100 scale, 0 no effect, 100 complete control, read-out: Plant response rating, Pigweed)?
Its pest or weed control at 31 g/ha is 0%.

What about the pest or weed control at 125 g/ha ([9]; 125 g ai/ha, postemergence, visual injury on 0 to 100 scale (0 no effect, 100 complete control), approx. 10 d, read-out: Blackgrass plant response rating) of the same compound?
The pest or weed control at 125 g/ha was 0%.

What about the pest or weed control at 31 g/ha ([9]; Postemergence, 31 g ai/ha, visual injury after approx. 10 d, 0 to 100 scale, 0 no effect, 100 complete control, read-out: Plant response rating, Blackgrass) of the same compound?
The pest or weed control at 31 g/ha was 0%.

And the pest or weed control at 125 g/ha ([10]; 125 g ai/ha, postemergence, visual injury on 0 to 100 scale (0 no effect, 100 complete control), approx. 10 d, read-out: Barnyardgrass plant response rating)?
The pest or weed control at 125 g/ha was 90%.

What about the pest or weed control at 31 g/ha ([10]; Postemergence, 31 g ai/ha, visual injury after approx. 10 d, 0 to 100 scale, 0 no effect, 100 complete control, read-out: Plant response rating, Barnyardgrass) of the same compound?
The pest or weed control at 31 g/ha was 50%.

And the plant injury at 125 g/ha ([11]; 125 g ai/ha, postemergence, visual injury vs untreated controls after approx. 10 d, 0 = no effect, 100 = complete control, read-out: Wheat plant response rating (0 to 100 scale))?
The plant injury at 125 g/ha was 0%.

And the plant injury at 31 g/ha ([11]; Postemergence, 31 g ai/ha, visual injury after approx. 10 d, 0 to 100 scale, 0 no effect, 100 complete control, read-out: Plant response rating, Wheat)?
The plant injury at 31 g/ha was 0%.

What about the pest or weed control at 125 g/ha ([12]; 125 g ai/ha, postemergence, visual injury vs untreated controls after approx. 10 d, 0 = no effect, 100 = complete control, read-out: Ragweed plant response rating (0 to 100 scale)) of the same compound?
Its pest or weed control at 125 g/ha is 0%.

What about the pest or weed control at 31 g/ha ([12]; Postemergence, 31 g ai/ha, visual injury after approx. 10 d, 0 to 100 scale, 0 no effect, 100 complete control, read-out: Plant response rating, Ragweed) of the same compound?
The pest or weed control at 31 g/ha was 0%.

And the pest or weed control at 125 g/ha ([13]; 125 g ai/ha, postemergence, visual injury vs untreated controls after approx. 10 d, 0 = no effect, 100 = complete control, read-out: Ryegrass, Italian plant response rating (0 to 100 scale))?
The pest or weed control at 125 g/ha was 20%.

What about the pest or weed control at 31 g/ha ([13]; Postemergence, 31 g ai/ha, visual injury after approx. 10 d, 0 to 100 scale, 0 no effect, 100 complete control, read-out: Plant response rating, Ryegrass, Italian) of the same compound?
The pest or weed control at 31 g/ha was 0%.

And the plant injury at 125 g/ha ([14]; 125 g ai/ha, postemergence, visual injury on 0 to 100 scale (0 no effect, 100 complete control), approx. 10 d, read-out: Corn plant response rating)?
Its plant injury at 125 g/ha is 0%.

What about the Corn plant response rating (crop injury, 0 = no effect, 100 = complete kill) at 31 g/ha ([14]; Postemergence, 31 g ai/ha, visual injury after approx. 10 d, 0 to 100 scale, 0 no effect, 100 complete control) of the same compound?
Its Corn plant response rating (crop injury, 0 = no effect, 100 = complete kill) at 31 g/ha is 0%.

What about the pest or weed control at 31 g/ha ([15]; 31 g ai/ha, Preemergence) of the same compound?
Its pest or weed control at 31 g/ha is 80%.

What about the pest or weed control at 125 g/ha [15, 21] of the same compound?
The pest or weed control at 125 g/ha was 90%.

And the pest or weed control at 31 g/ha ([16]; 31 g ai/ha, Preemergence)?
The pest or weed control at 31 g/ha was 0%.

And the pest or weed control at 125 g/ha [16, 21]?
The pest or weed control at 125 g/ha was 20%.

And the pest or weed control at 31 g/ha ([17]; 31 g ai/ha, Preemergence)?
The pest or weed control at 31 g/ha was 0%.

And the pest or weed control at 125 g/ha [17, 21]?
Its pest or weed control at 125 g/ha is 40%.

What about the pest or weed control at 31 g/ha ([18]; 31 g ai/ha, Preemergence) of the same compound?
The pest or weed control at 31 g/ha was 70%.

And the pest or weed control at 125 g/ha [18, 21]?
The pest or weed control at 125 g/ha was 90%.

What about the pest or weed control at 31 g/ha ([19]; 31 g ai/ha, Preemergence) of the same compound?
Its pest or weed control at 31 g/ha is 0%.

And the pest or weed control at 125 g/ha [19, 21]?
The pest or weed control at 125 g/ha was 0%.

And the pest or weed control at 31 g/ha ([20]; 31 g ai/ha, Preemergence)?
Its pest or weed control at 31 g/ha is 0%.

And the pest or weed control at 125 g/ha [20, 21]?
The pest or weed control at 125 g/ha was 20%.
